In patent US11725037B2, “Peptide dual agonists of GIPR and GLP2R” (University of Copenhagen, priority 2017, dated 2023):
Peptide text beside a SMILES is read from it. * marks the point of attachment. Palmitoyl = CCCCCCCCCCCCCCCC(=O)*

What was measured:
[1] = target: T1, human GIP receptor (Homo sapiens, UniProt P48546); experiment: cAMP accumulation assay (HitHunter cAMP XS) in transiently transfected COS-7 cells expressing the human GIP receptor; type: cell-based; conditions: for Emax at 10 µM: COS-7, read-out: Emax (10 μM), GIP receptor; for fold (fold change of native GIP), GIP receptor: EC50 relative to native GIP; for EC50: cAMP, COS-7
T1 construct: host or cells: COS-7 (transient, calcium phosphate; pCMV-Script vector)
T1 sequence (P48546 22-466): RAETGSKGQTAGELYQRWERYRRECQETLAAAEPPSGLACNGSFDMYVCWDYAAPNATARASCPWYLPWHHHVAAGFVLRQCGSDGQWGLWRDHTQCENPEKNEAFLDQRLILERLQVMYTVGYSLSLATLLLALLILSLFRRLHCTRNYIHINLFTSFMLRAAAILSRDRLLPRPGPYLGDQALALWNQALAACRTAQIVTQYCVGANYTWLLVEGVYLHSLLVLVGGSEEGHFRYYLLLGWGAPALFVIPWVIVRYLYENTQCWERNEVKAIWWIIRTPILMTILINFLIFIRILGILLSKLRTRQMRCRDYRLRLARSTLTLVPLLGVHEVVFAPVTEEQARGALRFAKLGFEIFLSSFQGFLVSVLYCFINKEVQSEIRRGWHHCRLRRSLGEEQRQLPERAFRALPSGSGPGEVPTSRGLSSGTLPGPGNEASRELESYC
Procedure: (§1) The day after, the cells were washed twice with Hepes buffered saline (HBS) buffer and incubated with HBS and 1 mM 3-isobutyl-1-methylxanthine (IBMX) for 30 min at 37° C. Ligands were added and incubated for 30 min at 37° C. The HitHunter™ cAMP XS assay (DiscoveRx) was carried out according to the manufacturer's instructions.

[2] = target: T2, human GLP-2 receptor (Homo sapiens, UniProt O95838); experiment: cAMP accumulation assay (HitHunter cAMP XS) in transiently transfected COS-7 cells expressing the human GLP-2 receptor; type: cell-based; conditions: for Emax at 10 µM: COS-7, read-out: Emax (10 μM), GLP-2 receptor; for fold (fold change of native GLP-2), GLP-2 receptor: EC50 relative to native GLP-2; for EC50: logEC50, GLP-2 receptor, cAMP, COS-7
T2 construct: host or cells: COS-7 (transient, calcium phosphate; pCMV-Script vector)
T2 sequence (O95838 1-553): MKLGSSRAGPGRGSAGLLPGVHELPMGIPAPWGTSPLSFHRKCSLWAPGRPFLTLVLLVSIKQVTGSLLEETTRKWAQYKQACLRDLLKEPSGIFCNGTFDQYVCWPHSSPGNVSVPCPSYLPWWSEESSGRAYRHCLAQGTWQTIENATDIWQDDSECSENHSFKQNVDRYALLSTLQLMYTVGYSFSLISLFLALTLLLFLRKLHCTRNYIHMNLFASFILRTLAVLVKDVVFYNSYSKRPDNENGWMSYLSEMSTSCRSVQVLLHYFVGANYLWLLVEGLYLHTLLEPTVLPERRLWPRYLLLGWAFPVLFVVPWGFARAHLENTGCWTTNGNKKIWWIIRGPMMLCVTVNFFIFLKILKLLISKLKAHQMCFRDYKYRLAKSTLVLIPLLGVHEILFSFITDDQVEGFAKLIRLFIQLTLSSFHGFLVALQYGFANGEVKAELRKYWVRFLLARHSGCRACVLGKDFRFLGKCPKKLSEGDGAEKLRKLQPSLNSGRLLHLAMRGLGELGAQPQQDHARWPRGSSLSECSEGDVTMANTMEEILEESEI
Procedure: as §1

[3] = logEC50, GIP receptor, Table 2, log value

Structure (SMILES): CC[C@H](C)[C@H](NC(=O)[C@H](Cc1ccccc1)NC(=O)[C@H](CC(=O)O)NC(=O)[C@H](CCCNC(=N)N)NC(=O)[C@H](C)NC(=O)[C@H](C)NC(=O)[C@H](CC(C)C)NC(=O)[C@H](CC(N)=O)NC(=O)[C@H](CC(=O)O)NC(=O)[C@H](CC(C)C)NC(=O)[C@@H](NC(=O)[C@@H](NC(=O)[C@H](CO)NC(=O)[C@H](Cc1ccc(O)cc1)NC(=O)[C@H](CC(=O)O)NC(=O)[C@H](CO)NC(=O)[C@@H](NC(=O)[C@H](Cc1ccccc1)NC(=O)[C@@H](NC(=O)CNC(=O)[C@H](CC(=O)O)NC(=O)[C@H](C)NC(=O)[C@@H](N)Cc1c[nH]cn1)[C@@H](C)O)[C@@H](C)CC)[C@@H](C)O)[C@@H](C)CC)C(=O)N[C@@H](CC(N)=O)C(=O)N[C@@H](Cc1c[nH]c2ccccc12)C(=O)N[C@@H](CC(C)C)C(=O)N[C@H](C(=O)N[C@@H](CCC(N)=O)C(=O)N[C@H](C(=O)N[C@@H](CCCCN)C(=O)N[C@H](C(=O)N[C@H](C(=O)N[C@@H](CCCCN)C(=O)O)[C@@H](C)O)[C@@H](C)CC)[C@@H](C)O)[C@@H](C)CC [Co-agonist 18]
- Emax at 10 µM [1]: 89%
- potency (and efficacy) on the GIP receptor compared with native GIP, in words ([1]; Table 1): almost the same potency and efficacy
- fold (fold change of native GIP), GIP receptor ([1]; Table 1): 7.4 fold
- Emax at 10 µM [2]: 94%
- potency and efficacy on the GLP-2R compared with native GLP-2, in words ([2]; Table 1): almost the same potency and efficacy
- fold (fold change of native GLP-2), GLP-2 receptor ([2]; Table 1): 4.4 fold

Structure (SMILES): CCCCCCCCCCCCCCCC(=O)NCCCC[C@H](NC(=O)[C@H](C)NC(=O)[C@H](C)NC(=O)[C@H](CC(C)C)NC(=O)[C@H](CC(N)=O)NC(=O)[C@H](CC(=O)O)NC(=O)[C@H](CC(C)C)NC(=O)[C@@H](NC(=O)[C@@H](NC(=O)[C@H](CO)NC(=O)[C@H](Cc1ccc(O)cc1)NC(=O)[C@H](CC(=O)O)NC(=O)[C@H](CO)NC(=O)[C@H](CO)NC(=O)[C@H](Cc1ccccc1)NC(=O)[C@@H](NC(=O)CNC(=O)[C@H](CC(=O)O)NC(=O)[C@H](C)NC(=O)[C@@H](N)Cc1c[nH]cn1)[C@@H](C)O)[C@@H](C)O)[C@@H](C)CC)C(=O)N[C@@H](CC(=O)O)C(=O)N[C@@H](Cc1ccccc1)C(=O)N[C@H](C(=O)N[C@@H](CC(N)=O)C(=O)N[C@@H](Cc1c[nH]c2ccccc12)C(=O)N[C@@H](CC(C)C)C(=O)N[C@H](C(=O)N[C@@H](CCC(N)=O)C(=O)N[C@H](C(=O)N[C@@H](CCCCN)C(=O)N[C@H](C(=O)N[C@H](C(=O)N[C@@H](CC(=O)O)C(=O)O)[C@@H](C)O)[C@@H](C)CC)[C@@H](C)O)[C@@H](C)CC)[C@@H](C)CC [Co-agonist 21] (H-HADGTFSSDYSTILDNLAAK(Palmitoyl)DFINWLIQTKITD-OH; N-terminus and C-terminus assumed)
- Emax at 10 µM [1]: 94%
- fold (fold change of native GIP), GIP receptor ([1]; Table 2): 381 fold
- EC50 [1, 3]: 33.9 nM
- Emax at 10 µM [2]: 75%
- fold (fold change of native GLP-2), GLP-2 receptor ([2]; Table 2): 5.0 fold

Structure (SMILES): CCCCCCCCCCCCCCCC(=O)N[C@@H](Cc1c[nH]cn1)C(=O)N[C@@H](C)C(=O)N[C@@H](CC(=O)O)C(=O)NCC(=O)N[C@H](C(=O)N[C@@H](Cc1ccccc1)C(=O)N[C@@H](CO)C(=O)N[C@@H](CO)C(=O)N[C@@H](CC(=O)O)C(=O)N[C@@H](Cc1ccc(O)cc1)C(=O)N[C@@H](CO)C(=O)N[C@H](C(=O)N[C@H](C(=O)N[C@@H](CC(C)C)C(=O)N[C@@H](CC(=O)O)C(=O)N[C@@H](CC(N)=O)C(=O)N[C@@H](CC(C)C)C(=O)N[C@@H](C)C(=O)N[C@@H](C)C(=O)N[C@@H](CCCNC(=N)N)C(=O)N[C@@H](CC(=O)O)C(=O)N[C@@H](Cc1ccccc1)C(=O)N[C@H](C(=O)N[C@@H](CC(N)=O)C(=O)N[C@@H](Cc1c[nH]c2ccccc12)C(=O)N[C@@H](CC(C)C)C(=O)N[C@H](C(=O)N[C@@H](CCC(N)=O)C(=O)N[C@H](C(=O)N[C@@H](CCCCN)C(=O)N[C@H](C(=O)N[C@H](C(=O)N[C@@H](CC(=O)O)C(=O)O)[C@@H](C)O)[C@@H](C)CC)[C@@H](C)O)[C@@H](C)CC)[C@@H](C)CC)[C@@H](C)CC)[C@@H](C)O)[C@@H](C)O [Co-agonist 22] (Palmitoyl-HADGTFSSDYSTILDNLAARDFINWLIQTKITD-OH)
- Emax at 10 µM [1]: 100%
- EC50 [1, 3]: 0.407 nM
- Emax at 10 µM [2]: 72%
- EC50 ([2]; Table 2): 1.32 nM

Structure (SMILES): CCCCCCCCCCCCCCCC(=O)NCCCC[C@H](NC(=O)[C@@H](NC(=O)[C@H](CCC(N)=O)NC(=O)[C@@H](NC(=O)[C@H](CC(C)C)NC(=O)[C@H](Cc1c[nH]c2ccccc12)NC(=O)[C@H](CC(N)=O)NC(=O)[C@@H](NC(=O)[C@H](Cc1ccccc1)NC(=O)[C@H](CC(=O)O)NC(=O)[C@H](CCCNC(=N)N)NC(=O)[C@H](C)NC(=O)[C@H](C)NC(=O)[C@H](CC(C)C)NC(=O)[C@H](CC(N)=O)NC(=O)[C@H](CC(=O)O)NC(=O)[C@H](CC(C)C)NC(=O)[C@@H](NC(=O)[C@@H](NC(=O)[C@H](CO)NC(=O)[C@H](Cc1ccc(O)cc1)NC(=O)[C@H](CC(=O)O)NC(=O)[C@H](CO)NC(=O)[C@H](CO)NC(=O)[C@H](Cc1ccccc1)NC(=O)[C@@H](NC(=O)CNC(=O)[C@H](CC(=O)O)NC(=O)[C@H](C)NC(=O)[C@@H](N)Cc1c[nH]cn1)[C@@H](C)O)[C@@H](C)O)[C@@H](C)CC)[C@@H](C)CC)[C@@H](C)CC)[C@@H](C)O)C(=O)N[C@H](C(=O)N[C@H](C(=O)N[C@@H](CC(=O)O)C(=O)O)[C@@H](C)O)[C@@H](C)CC [Co-agonist 23] (H-HADGTFSSDYSTILDNLAARDFINWLIQTK(Palmitoyl)ITD-OH; N-terminus and C-terminus assumed)
- Emax at 10 µM [1]: 81%
- fold (fold change of native GIP), GIP receptor ([1]; Table 2): 8.5 fold
- Emax at 10 µM [2]: 57%
- fold (fold change of native GLP-2), GLP-2 receptor ([2]; Table 2): 1.2 fold
- EC50 ([2]; Table 2): 1.41 nM

Structure (SMILES): CC[C@H](C)[C@H](NC(=O)[C@H](Cc1ccccc1)NC(=O)[C@H](CC(=O)O)NC(=O)[C@H](CCCCN)NC(=O)[C@H](C)NC(=O)[C@H](C)NC(=O)[C@H](CC(C)C)NC(=O)[C@H](CC(N)=O)NC(=O)[C@H](CC(=O)O)NC(=O)[C@H](CC(C)C)NC(=O)[C@@H](NC(=O)[C@@H](NC(=O)[C@H](CO)NC(=O)[C@H](Cc1ccc(O)cc1)NC(=O)[C@H](CC(=O)O)NC(=O)[C@H](CO)NC(=O)[C@@H](NC(=O)[C@H](Cc1ccccc1)NC(=O)[C@@H](NC(=O)CNC(=O)[C@H](CC(=O)O)NC(=O)[C@H](C)NC(=O)[C@@H](N)Cc1c[nH]cn1)[C@@H](C)O)[C@@H](C)CC)[C@@H](C)O)[C@@H](C)CC)C(=O)N[C@@H](CC(N)=O)C(=O)N[C@@H](Cc1c[nH]c2ccccc12)C(=O)N[C@@H](CC(C)C)C(=O)N[C@H](C(=O)N[C@@H](CCC(N)=O)C(=O)N[C@H](C(=O)N[C@@H](CCCCN)C(=O)N[C@H](C(=O)N[C@H](C(=O)N[C@@H](CCCCN)C(=O)O)[C@@H](C)O)[C@@H](C)CC)[C@@H](C)O)[C@@H](C)CC [Co-agonist 28]
- Emax at 10 µM [1]: 100%
- EC50 [1, 3]: 0.2 nM
- Emax at 10 µM [2]: 112%

Structure (SMILES): CCCCCCCCCCCCCCCC(=O)N[C@@H](Cc1c[nH]cn1)C(=O)N[C@@H](C)C(=O)N[C@@H](CC(=O)O)C(=O)NCC(=O)N[C@H](C(=O)N[C@@H](Cc1ccccc1)C(=O)N[C@H](C(=O)N[C@@H](CO)C(=O)N[C@@H](CC(=O)O)C(=O)N[C@@H](Cc1ccc(O)cc1)C(=O)N[C@@H](CO)C(=O)N[C@H](C(=O)N[C@H](C(=O)N[C@@H](CC(C)C)C(=O)N[C@@H](CC(=O)O)C(=O)N[C@@H](CC(N)=O)C(=O)N[C@@H](CC(C)C)C(=O)N[C@@H](C)C(=O)N[C@@H](C)C(=O)N[C@@H](CCCNC(=N)N)C(=O)N[C@@H](CC(=O)O)C(=O)N[C@@H](Cc1ccccc1)C(=O)N[C@H](C(=O)N[C@@H](CC(N)=O)C(=O)N[C@@H](Cc1c[nH]c2ccccc12)C(=O)N[C@@H](CC(C)C)C(=O)N[C@H](C(=O)N[C@@H](CCC(N)=O)C(=O)N[C@H](C(=O)N[C@@H](CCCCN)C(=O)N[C@H](C(=O)N[C@H](C(=O)N[C@@H](CCCCN)C(=O)O)[C@@H](C)O)[C@@H](C)CC)[C@@H](C)O)[C@@H](C)CC)[C@@H](C)CC)[C@@H](C)CC)[C@@H](C)O)[C@@H](C)CC)[C@@H](C)O [Co-agonist 29]
- Emax at 10 µM [1]: 115%
- EC50 ([1]; EC50(nM), GIP receptor, Table 2): 1.82 nM
- EC50 [1, 3]: 1.82 nM
- Emax at 10 µM [2]: 82%
- EC50 ([2]; Table 2): 17.4 nM
